# Data from patent US10064865B2, “Composition comprising phosphodiesterase type 5 inhibitor for inhibiting apoptosis of nerve cells” (ARIBIO INC., priority 2012, dated 2018).
# Marks after values point to notes of the source that are not given here.
# Legend:
# Format in all cases: in vivo, Sprague-Dawley (SD) rats
# [1] = test system: neuron apoptosis-operated rats; assay: Example 2 hindlimb placing test
# Protocol: Sensorimotor function was evaluated by use of limb placing (de Ryck M et al., Stroke. 20:1383-90(1989)) and body swing (Borlongan and Sanberg, J Neurosci. 15:5372-8(1995)) tests. These tests were performed at 1 and 28 days after neuron apoptosis. The investigator performing the surgery and behavioral assessments was blinded to treatment assignment.
# Limb placing test: Forelimb and hindlimb placement were assessed independently. For the forelimb placing test, the rats were held by their torso with their forepaws hanging free and moved slowly toward the edge of a tabletop, stopping short of touching the vibrissae (for vision-induced placing), touching the vibrissae (for vibrissae-induced placing), making light contact with the front of the forepaw to the edge of the tabletop (for tactile-induced placing), and pressing the forepaws to the edge of the table with increased pressure (for proprioceptive-induced placing). Hindlimb placing was conducted in the same manner as above but with tactile and proprioceptive stimulation applied to the front/top of each hindlimb. Each limb for placing in response to visual, vibrissae, tactile, and proprioceptive stimulation are scored in the following manner: normal performance=0 points; performance with unilateral limb=1 point; performance with a delay (2 seconds) and/or incomplete=2 point; no performance=3 points. A total of 12 points in forelimb placing test and 6 points in hindlimb placing test means maximal neurological deficit, and 0 points means normal performance.
# All data were expressed as mean±standard deviation (S.D.) of ten rats. Multiple comparison tests for different dose groups were conducted. Variance homogeneity was examined using the Levene test (Levene A, Clin Otalary, 1981; 6:145-51). […] In addition, the percent changes as compared with neuron apoptosis control and mirodenafil treated rats were calculated to help the understanding of the efficacy of test substances as follow Equation 6 and 7. […]
# [2] = Example 1 body weight measurements; conditions: for Weight gains [B − A]: during 29 days after neuron apoptosis
# caspase-3 = assay: Example 1 immunohistochemistry: caspase-3-immunoreactive cells; conditions: for Numbers of neurons: Caspase-3+: 29 days after neuron apoptosis
# Protocol: The induction of neuron apoptosis was carried out by damaging the right hemisphere of the brain of animals. Specifically, animals were anesthetized with 2 or 3% isoflurane in the mixture of 70% N2O and 28.5% O2, and were maintained with 1 to 1.5% isoflurane in the mixture of 70% N2O and 28.5% O2. After that the temporalis muscle was bisected and reflected through an incision made midway between the eye and the eardrum canal. The proximal MCA was exposed through a subtemporal craniectomy by microdental drills without removing the zygomatic arch and without transecting the facial nerve. […] Mortality was less than 5%. For sham control, all procedures were performed in the same way, with the exception of the occlusion of the MCA.
# After deparraffinized of cerebral histological paraffin sections, citrate buffer antigen (epitope) retrieval pretreatment were conducted as previously (Shi S R et al., J Histochem Cytochem. 41:1599-604(1993)). Briefly, pre-heat water bath with staining dish containing 10 mM citrate buffers (pH 6.0) until temperature reaches 95-100° C. Immerse slides in the staining dish and place the lid loosely on the staining dish. Incubate for 20 minutes and turn off the water bath. Place the staining dish at room temperature and allow the slides to cool for 20 minutes. After epitope retrivals, sections were immunostained as following steps:
# Incubate sections with methanol and 0.3% H2O2 for 30 minutes for blocking endogenous peroxidase activity at room temperature and rinse in 0.01M phosphate buffered saline (PBS; pH 7.2) for 3 times;
# Incubate sections with normal horse serum blocking solution (Vector Lab. Inc., Burlingame, USA. Dilution 1:100) for 1 hour to block non-specific binding of immunoglobulin at room temperature in humidity chamber, and rinse in 0.01M PBS for 3 times;
# Incubate sections with primary antisera for overnight at 4° C. in humidity chamber and rinse in 0.01M PBS for 3 times;
# Incubate sections with biotinylated universal secondary antibody (Vector Lab., Dilution 1:50) for 1 hour at room temperature in humidity chamber and rinse in 0.01M PBS for 3 times;
# Incubate sections with ABC reagents (Vectastain Elite ABC Kit, Vector Lab., Dilution 1:50) for 1 hour at room temperature in humidity chamber and rinse in 0.01M PBS for 3 times;
# Incubate sections in Peroxidae substrate kit (Vector Lab.) for 5 min at room temperature and rinse in 0.01M PBS for 3 times;
# Counterstain with Mayer's hematoxylin solution and rinse in running tap water for 30 minutes;
# Dehydrate through 95% ethanol for 2 minutes, 100% ethanol for 3 times and Clear in xylene for two times; and
# Coverslip with permanent mounting medium and observed under light microscope (Nikkon, Japan).
# Histomorphometry: The nerve cells occupied by over 10% of immunoreactivities, the density, of each antiserum, caspase-3 and PARP were regarded as immunoreactive. In the present study, the numbers of each caspase-3 and PARP-immunoreactive cells among mm^2 of ipsilateral peri-infarct/defect cerebral cortex were measured using a computer-assisted image analysis program, respectively.
# All data were expressed as mean±standard deviation (S.D.) of ten rats. Multiple comparison tests for different dose groups were conducted. Variance homogeneity was examined using the Levene test (Levene A, Clin Otalary, 1981; 6:145-51). […] Statistical analyses were conducted using SPSS (Release 14K, SPSS Inc., USA; Ludbrook, Clin Exp Pharmacol Physiol, 1997; 24:294-6). In addition, the percent changes between neuron apoptosis control and mirodenafil treated rats were calculated to help the understanding of the efficacy of test material as follow equation 3. Percentage changes as compared with neuron apoptosis control (%)=[((Data of mirodenafil treated groups−Data of neuron apoptosis control)/Data of neuron apoptosis control)×100] [EQUATION 3]
smiles,measurement,setting,value
"CCCOc1ccc(S(=O)(=O)N2CCN(CCO)CC2)cc1-c1nc2c(CCC)cn(CC)c2c(=O)[nH]1 [Mirodenafil, mirodenafil]","hindlimb placing test scores at 28 days, change as compared with neuron apoptosis control",[1]; 1 mg/kg from 24 hrs after surgery,−65.22%
same,"hindlimb placing test scores at 28 days, change as compared with neuron apoptosis control",[1]; 1 mg/kg from 72 hrs after surgery,−39.13%
same,"hindlimb placing test scores at 28 days, change as compared with neuron apoptosis control",[1]; 1 mg/kg from 168 hrs after surgery,−17.39%
same,"body weight gains during 29 days, change as compared with neuron apoptosis control",[2]; 0.5 mg/kg,45.53%
same,Body weights at 29 days after surgery [B],[2]; 0.5 mg/kg s.c. once a day,502.60 ± 23.09^a
same,Weight gains [B − A],[2]; 0.5 mg/kg s.c. once a day,−7.60 ± 9.19^a g
same,Body weights at 29 days after surgery [B],[2]; 1 mg/kg s.c. once a day,526.40 ± 23.45^bd
same,Weight gains [B − A],[2]; 1 mg/kg s.c. once a day,16.10 ± 7.80^ac g
same,Body weights at 29 days after surgery [B],[2]; 2 mg/kg s.c. once a day,520.90 ± 30.21^b
same,Weight gains [B − A],[2]; 2 mg/kg s.c. once a day,7.50 ± 11.20^ac g
same,"numbers of caspase-3-immunoreactive neurons, change as compared with neuron apoptosis control",caspase-3; 0.5 mg/kg,−33.43%
same,Numbers of neurons: Caspase-3+,caspase-3; 0.5 mg/kg s.c. once a day,43.80 ± 10.37^ab cells/mm^2 of cerebral cortex
same,"numbers of caspase-3-immunoreactive neurons, change as compared with neuron apoptosis control",caspase-3; 1 mg/kg,−76.44%
same,Numbers of neurons: Caspase-3+,caspase-3; 1 mg/kg s.c. once a day,15.50 ± 3.57^ab cells/mm^2 of cerebral cortex
same,"numbers of caspase-3-immunoreactive neurons, change as compared with neuron apoptosis control",caspase-3; 2 mg/kg,−77.96%
same,Numbers of neurons: Caspase-3+,caspase-3; 2 mg/kg s.c. once a day,14.50 ± 3.69^ab cells/mm^2 of cerebral cortex
